Measured values from patent US20160076075A1 (priority 2014, published 2016).

Columns and labels:
[1] = test system: IMCSzyme™ (recombinant glucuronidase); format: biochemical
[2] = test system: IMCSzyme™ (recombinant glucuronidase); experiment: IMCSzyme hydrolysis of opiate glucuronides; format: biochemical; conditions: for Cleavage in the presence of the IMCSzyme (in words): compared with planar THCA-glucuronide
[3] = test system: Red Abalone beta-glucuronidase (Kura Biotec); experiment: Red Abalone beta-glucuronidase hydrolysis of THCA glucuronide; format: biochemical; conditions: for Enzyme + Organic Solvent(s) (% Hydrolysis) / Enzyme (% Hydrolysis): 65° C.; for Enzyme + Organic Solvent(s) (% Hydrolysis): ACN/MeOH; for Enzyme (% Hydrolysis): without organic
Procedure: To a 10 mL volumetric flask add 5 mL of DI water. Then add 1.0 mL of Kura Biotec enzyme. QS to the line with DI water, cap and invert several times to mix well. Final enzyme concentration is 5000 U.
In a 10 mL volumetric flask add 6 mL of 50/50 ACN/MeOH. Add 25 μL of THCA D9 100 μg/mL. Then add 1.0 mL of IMCS enzyme. QS to the line with DI water. Final enzyme concentration is 5000 U.
To a 10 mL volumetric flask add 6 mL of 50/50 ACN/MeOH. Add 25 μL of THCA D9 (100 μg/mL). QS to the line with DI water, cap and invert several times to mix well. Concentration of IS will be 250 ng/mL.
(§1) To a 10 mL volumetric flask add 1 mL ACN. Add 18.5 μL of 10 μg/mL THCA Glucuronide working solution adjusted to allow quantitation of THCA at 18.5 ng/mL post hydrolysis. QS to line with NHU.
(§2) Pipet 50 μL sample into a 750 μL autosampler vial. Pipet 50 μL of prepared enzyme into vial (this will yield 500 U in final 500 μL volume). Vortex and heat 15, 30, 45, and 60 minutes. Then pipet 400 μL of THCA D9 IS into vial. Vortex and move to instrument.
Pipet 50 μL sample into a 750 μL autosampler vial. Then pipet 450 μL of Enzyme Stock Solution With Organic (see above) into vial. Vortex and heat 15, 30, 45, and 60 minutes. Vortex and move to instrument.

[4] = Hydrolysis of THCA glucuronide at 65° C. with no enzyme; format: physicochemical; conditions: for No Enzyme (% Hydrolysis): 65° C.
Procedure: as §1, §2
In the presence of enzyme, the THCA glucuronide is hydrolyzed completely by 15 min.

[5] = test system: IMCSzyme™ (recombinant glucuronidase); experiment: IMCSzyme hydrolysis of THCA glucuronide with and without water miscible organic media; format: biochemical
Procedure: To a 10 mL volumetric flask add 5 mL of 0.2M Sodium Phosphate buffer pH 7.5. Then add 1.0 mL of IMCS enzyme. QS to the line with 0.2M phosphate buffer, cap and invert several times to mix well. Final enzyme concentration is 5000 U.
To a 10 mL volumetric flask add 6 mL of 50/50 ACN/MeOH. Add […] of THCA D9 100 μg/mL. Then add 1.0 mL of IMCS enzyme stock (>5000 U). QS to the line with 0.2M sodium phosphate buffer. Final enzyme concentration is 5000 U.
In a 10 mL volumetric flask add 6 mL of 50/50 ACN/MeOH. Add 25 μL of THCA D9 (100 μg/mL). QS to the line with DI water, cap and invert several times to mix well. Concentration of IS will be 250 ng/mL.
as §1
Pipet 50 μL sample into a 750 μL autosampler vial. Pipet 50 μL of prepared enzyme into vial (this will yield 500 U in final 500 μL volume) and wait 5, 10, 15, and 20 minutes. Then pipet 400 μL of THCA D9 IS into the vial. Vortex and move to instrument.
Pipet 50 μL sample into a 750 μL, autosampler vial. Then pipet 450 μL, of Enzyme Stock Solution With Organic (see above) into vial. Wait 5, 10, 15, and 20 minutes. Vortex and move to instrument.

Compound: CO[C@]12CC[C@@]3(C[C@@H]1[C@](C)(O)C(C)(C)C)[C@H]1Cc4ccc(O[C@@H]5O[C@H](C(=O)O)[C@@H](O)[C@H](O)[C@H]5O)c5c4[C@@]3(CCN1CC1CC1)[C@H]2O5 [Buprenorphine Glucuronide]
- Cleavage by the recombinant enzyme (in words) [1]: rapidly cleaves

Compound: COc1ccc2c3c1O[C@H]1[C@@H](O[C@@H]4O[C@H](C(=O)O)[C@@H](O)[C@H](O)[C@H]4O)C=C[C@H]4[C@@H](C2)N(C)CC[C@@]341 [Codeine Glucuronide]
- Mean % Hydrolysis ([2]; 55° C., 0 min): 15.7%
- Mean % Hydrolysis ([2]; 55° C., 15 min): 40.2%
- Mean % Hydrolysis ([2]; 55° C., 30 min): 65.6%
- Mean % Hydrolysis ([2]; 55° C., 45 min): 76.6%
- Mean % Hydrolysis ([2]; 55° C., 60 min): 81.8%
- Mean % Hydrolysis ([2]; 65° C., 0 min): 15.7%
- Mean % Hydrolysis ([2]; 65° C., 15 min): 42.7%
- Mean % Hydrolysis ([2]; 65° C., 30 min): 64.1%
- Mean % Hydrolysis ([2]; 65° C., 45 min): 75.5%
- Mean % Hydrolysis ([2]; 65° C., 60 min): 79.8%
- Cleavage in the presence of the IMCSzyme (in words) [2]: take more time and heat to cleave

Compound: CN1CC[C@]23c4c5ccc(O[C@@H]6O[C@H](C(=O)O)[C@@H](O)[C@H](O)[C@H]6O)c4O[C@H]2C(=O)CC[C@H]3[C@H]1C5 [Hydromorphone Glucuronide]
- Mean % Hydrolysis ([2]; 55° C., 0 min): 58.5%
- Mean % Hydrolysis ([2]; 55° C., 15 min): 80.5%
- Mean % Hydrolysis ([2]; 55° C., 30 min): 91.1%
- Mean % Hydrolysis ([2]; 55° C., 45 min): 93.3%
- Mean % Hydrolysis ([2]; 55° C., 60 min): 93.8%
- Mean % Hydrolysis ([2]; 65° C., 0 min): 58.5%
- Mean % Hydrolysis ([2]; 65° C., 15 min): 77.1%
- Mean % Hydrolysis ([2]; 65° C., 30 min): 89.4%
- Mean % Hydrolysis ([2]; 65° C., 45 min): 91.0%
- Mean % Hydrolysis ([2]; 65° C., 60 min): 91.5%

Compound: CN1CC[C@]23c4c5ccc(O[C@@H]6O[C@H](C(=O)O)[C@@H](O)[C@H](O)[C@H]6O)c4O[C@H]2[C@@H](O)C=C[C@H]3[C@H]1C5 [Morphine-3-Glucuronide]
- Mean % Hydrolysis ([2]; 55° C., 0 min): 99.5%
- Mean % Hydrolysis ([2]; 55° C., 15 min): 99.1%
- Mean % Hydrolysis ([2]; 55° C., 30 min): 99.1%
- Mean % Hydrolysis ([2]; 55° C., 45 min): 97.4%
- Mean % Hydrolysis ([2]; 55° C., 60 min): 99.9%
- Mean % Hydrolysis ([2]; 65° C., 0 min): 99.5%
- Mean % Hydrolysis ([2]; 65° C., 15 min): 95.9%
- Mean % Hydrolysis ([2]; 65° C., 30 min): 95.8%
- Mean % Hydrolysis ([2]; 65° C., 45 min): 97.9%
- Mean % Hydrolysis ([2]; 65° C., 60 min): 97.6%

Compound: CN1CC[C@]23c4c5ccc(O)c4O[C@H]2[C@@H](O[C@@H]2O[C@H](C(=O)O)[C@@H](O)[C@H](O)[C@H]2O)C=C[C@H]3[C@H]1C5 [Morphine-6-Glucuronide]
- Mean % Hydrolysis ([2]; 55° C., 0 min): 40.4%
- Mean % Hydrolysis ([2]; 55° C., 15 min): 67.9%
- Mean % Hydrolysis ([2]; 55° C., 30 min): 83.6%
- Mean % Hydrolysis ([2]; 55° C., 45 min): 95.9%
- Mean % Hydrolysis ([2]; 55° C., 60 min): 91.7%
- Mean % Hydrolysis ([2]; 65° C., 0 min): 40.4%
- Mean % Hydrolysis ([2]; 65° C., 15 min): 71.2%
- Mean % Hydrolysis ([2]; 65° C., 30 min): 88.3%
- Mean % Hydrolysis ([2]; 65° C., 45 min): 98.5%
- Mean % Hydrolysis ([2]; 65° C., 60 min): 97.9%
- Cleavage in the presence of the IMCSzyme (in words) [2]: take more time and heat to cleave

Compound: CN1CC[C@]23c4c5ccc(O[C@@H]6O[C@H](C(=O)O)[C@@H](O)[C@H](O)[C@H]6O)c4O[C@H]2C(=O)CC[C@@]3(O)[C@H]1C5 [Oxymorphone Glucuronide]
- Mean % Hydrolysis ([2]; 55° C., 0 min): 43.6%
- Mean % Hydrolysis ([2]; 55° C., 15 min): 71.7%
- Mean % Hydrolysis ([2]; 55° C., 30 min): 90.5%
- Mean % Hydrolysis ([2]; 55° C., 45 min): 97.0%
- Mean % Hydrolysis ([2]; 55° C., 60 min): 101.2%
- Mean % Hydrolysis ([2]; 65° C., 0 min): 43.6%
- Mean % Hydrolysis ([2]; 65° C., 15 min): 76.2%
- Mean % Hydrolysis ([2]; 65° C., 30 min): 89.7%
- Mean % Hydrolysis ([2]; 65° C., 45 min): 95.6%
- Mean % Hydrolysis ([2]; 65° C., 60 min): 100.0%

Compound: CCCCCc1cc(O)c2c(c1)OC(C)(C)C1CCC(C(=O)OC3OC(C(=O)O)C(O)C(O)C3O)=CC21 (centres unmarked) [THCA Glucuronide]
- Enzyme + Organic Solvent(s) (% Hydrolysis) ([3]; 15 min): 121%
- Enzyme (% Hydrolysis) ([3]; 15 min): 104%
- Enzyme + Organic Solvent(s) (% Hydrolysis) ([3]; 30 min): 130%
- Enzyme (% Hydrolysis) ([3]; 30 min): 97%
- Enzyme + Organic Solvent(s) (% Hydrolysis) ([3]; 45 min): 134%
- Enzyme (% Hydrolysis) ([3]; 45 min): 102%
- Enzyme + Organic Solvent(s) (% Hydrolysis) ([3]; 60 min): 136%
- Enzyme (% Hydrolysis) ([3]; 60 min): 101%
- Hydrolysis ([3]; enzyme and 60% water miscible solvent, as early as 15 min): 100%
- Time by which hydrolyzed completely ([3]; in the presence of enzyme): ≤ 15 min
- No Enzyme (% Hydrolysis) ([4]; 15 min): 0.03%
- No Enzyme (% Hydrolysis) ([4]; 30 min): 0.03%
- No Enzyme (% Hydrolysis) ([4]; 45 min): 0.03%
- No Enzyme (% Hydrolysis) ([4]; 60 min): 0.03%
- Hydrolysis in the absence of enzyme (in words) ([4]; elevated temperature): no hydrolysis
- Mean % Hydrolysis ([5]; Enzyme added and incubated, then organic media added, 5 min at 55° C.): 89.2%
- Mean % Hydrolysis ([5]; Enzyme added and incubated, then organic media added, 5 min at 65° C.): 90.1%
- Mean % Hydrolysis ([5]; Enzyme and organic media added at same time, 5 min at Room Temp): 110.2%
- Mean % Hydrolysis ([5]; Enzyme and organic media added at same time, 10 min at Room Temp): 101.7%
- Mean % Hydrolysis ([5]; Enzyme and organic media added at same time, 15 min at Room Temp): 104.9%
- Recombinant enzyme hydrolysis (in words) ([5]; room temperature, time to fill the 96-well plate (~15 min using robotics)): complete
